These results are taken from patent US20030186424A1, “Reagents and methods for identifying and modulating expression of genes regulated by CDK inhibitors” (priority 2001, published 2003).

In one data set the test system is CRD1 domain of p300. The data set can be described thus: CRD1 dependent stimulation of transcription (Gal4 p300 CRD1+ luciferase reporter). It counts as cell-based, human. The following applies: treatment of cells with the compound; data not shown. As to the method:
Calcium phosphate transfections of U-2 OS cells were performed substantially as disclosed in Webster & Perkins (1999, Mol. Cell. Biol. 19: 3485-3495). Briefly, transfections were performed in 6 cm dishes using 2 μg of reporter plasmid, 1.6 μg of RSV p21 or RSV ADH control plasmid and 5 ng of Gal4 expression plasmid (except where indicated in the figure legend). Cells were harvested approximately 40 hours after transfection. Lysates were prepared using passive lysis buffer (Promega) and luciferase assays were performed according to manufacturer's instructions (Promega). All experiments were performed separately, a minimum of three times before calculating means and standard errors as shown in the Figures. Relative luciferase levels were calculated by referring to the level of activity seen with the Gal4 DNA-binding domain (amino acids 1-147) not fused to a heterologous activator, except when specifically referred to.
Wild type p21 and the two mutants were cotransfected with Gal4 p300^CRD+ (192-1044) and Gal4 E1B luciferase into U-2 OS cells. Both mutants stimulated transcriptional activity to the same extent as the wild type protein (FIG. 8B), consistent with a Cyclin/CDK independent role for p21 regulation of CRD1. […]
On the technique in general: A reporter such as luciferase makes a cellular process visible.

A further data set concerns the target TBP + TFIIB complex (UniProt P20226;Q00403 P20226:1-339,Q00403:1-316). As to the kind of experiment: EMSA; no complex seen; 30 C, 4 mM MgCl2, 55 mM KCl; exact probe span not stated. The following applies: tags: gift from Stefan Roberts, University of Manchester; label: 32P. An excerpt:
The sequence of the TATA box and surrounding sequences was known in the art to influence binding of basal transcription factors (Lieberman et al., 1997, Mol. Cell. Biol. 17: 6624-6632). Since the Bax TATA sequence differs considerably from AdML, these constructs were used to determine whether the observed structural differences would be associated with differential binding of the core transcription factors TBP (TATA binding protein) and TFIIB. In these experiments, purified recombinant TBP and TFIIB were therefore incubated with ³²P labeled probes containing the AdML and Bax TATA boxes and analyzed by electrophoretic mobility shift assay (EMSA), performed as follows. ³²P labeled probe DNA was incubated for 1 hr at 30° C. with ˜1 ng purified recombinant TBP, ˜2 ng purified recombinant TFIIB (both proteins gifts from Dr Stefan Roberts, University of Manchester), 5 μg BSA, 250 ng poly(dG.dC) competitor and 12 μL buffer (having a formula of 10 mM Hepes pH7.9, 0.2 mM EDTA, 55 mM KCl, 4 mM MgCl₂, 5 mM ammonium sulphate, 8% v/v glycerol, 2% v/v polyethylene glycol, 5 mM β-mercaptoethanol, and 0.2 mM PMSF). Samples were then resolved using a 4.8% acrylamide gel (in 0.5×TB buffer). The gel was then dried and exposed to film.
In general terms: Mobility shift assays separate free from complexed probe on a gel.

TBP + TFIIB complex, sequence (P20226 whole entry, chain 1 of 2): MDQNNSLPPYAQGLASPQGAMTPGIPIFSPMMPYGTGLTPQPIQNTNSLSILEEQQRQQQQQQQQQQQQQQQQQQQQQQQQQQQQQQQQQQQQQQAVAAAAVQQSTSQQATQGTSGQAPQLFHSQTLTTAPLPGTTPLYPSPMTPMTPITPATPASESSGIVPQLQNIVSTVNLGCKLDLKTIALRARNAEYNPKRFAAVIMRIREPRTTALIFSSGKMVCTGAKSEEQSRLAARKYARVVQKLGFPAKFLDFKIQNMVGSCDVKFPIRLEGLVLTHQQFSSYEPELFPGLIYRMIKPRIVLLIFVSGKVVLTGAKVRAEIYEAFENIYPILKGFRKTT
TBP + TFIIB complex, sequence (Q00403 whole entry, chain 2 of 2): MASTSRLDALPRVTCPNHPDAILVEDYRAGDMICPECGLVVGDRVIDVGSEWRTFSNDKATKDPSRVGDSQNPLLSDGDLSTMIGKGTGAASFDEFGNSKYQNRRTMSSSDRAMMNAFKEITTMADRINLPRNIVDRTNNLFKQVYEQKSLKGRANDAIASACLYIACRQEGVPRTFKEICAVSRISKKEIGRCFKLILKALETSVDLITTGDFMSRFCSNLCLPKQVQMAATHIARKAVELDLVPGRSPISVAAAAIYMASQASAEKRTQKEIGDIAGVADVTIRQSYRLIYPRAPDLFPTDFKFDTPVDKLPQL

With `NC(Cn1ccc(=O)c(O)c1)C(=O)O` (stereo not drawn) [mimosine], the “CRD1 dependent stimulation of transcription” value with CRD1 domain of p300 was “does not result in CRD1 dependent stimulation of transcription”.
With `CC[C@H](CO)Nc1nc(NCc2ccccc2)c2ncn(C(C)C)c2n1` [roscovitine], in the data set with CRD1 domain of p300, the “CRD1 dependent stimulation of transcription” value is listed as “does not result in CRD1 dependent stimulation of transcription”.

B1: Bax TATA box core promoter probe (dsDNA)
DNA 1: ACTCAGTTTTTAGTCATCTATAACGTCCTGCCTGGAAGCATGCTATTTTGGGCCTCTGAGCTT
DNA 2: AAGCTCAGAGGCCCAAAATAGCATGCTTCCAGGCAGGACGTTATAGATGACTAAAAACTGAGT
As to B1, in the data set with TBP + TFIIB complex, the binding result is recorded as “no binding”.
